This test relates to U87 cells. Description: Competitive inhibition of integrin targeted transduction mediated by AAV2^N587+1/azido+RGD. The test is classed as cell-based.

As to dibenzocyclooctyne [DIBO], the “competitive inhibition of DIBO-RGD coupling effect” value is reported as “competitively inhibit”.
